The source of these data is patent US8716315B2, “Analogs of thalidomide as potential angiogenesis inhibitors” (The United States of America as represented by the …, priority 2001, dated 2014).

One data set deals with HUVEC. Nature of the data set: HUVEC MTT assay. Particulars: for inhibition, growth curves treated vs control wells: at about 72 hours. In kind it is cell-based. The procedure:
HUVEC MTT assays were performed for the selected thalidomide analogs of the present invention to determine a rough estimate of the efficacy of such compounds in the inhibition of angiogenesis. For the MTT assay, 1.0 to 2.5×10^3 cells per well were plated in 96-well plates in 0.1 ml medium, in triplicate. After 24 hours, the cells were exposed to treatment for 5 days. One plate was analyzed every 24 hours by the addition of 20 μL of 5 mg/ml MTT solution (available from Sigma of St. Louis, Mo.) in PBS, to each well for 4 hours. The MTT solution was aspirated and 170 μL DMSO was added to each well to dissolve the formazan crystals. The absorbance at 540 nm was measured using a Biokinetics plate reader (available from Bio-Tek Instruments of Winooski, Vt.). Triplicate wells were assayed for each condition. The assay protocol described herein stems from Kruger et al., a protein kinase C inhibitor, inhibits endothelial cell proliferation and angiogenic hypoxic response, Invasion and Metastasis, 18(4): 209-218 (incorporated herein by reference).
The following results for the selected compounds were determined measured utilizing growth curves comparing control wells to treated wells using the MTT assays.

The next data set deals with rat aortic rings. Nature of the data set: Anti-angiogenic activity utilizing rat aortic rings. The class given is cell-based, rat (Sprague-Dawley). The conditions noted are these: daily dosage of 100 μM, five-day treatment, image analysis vs DMSO control rings; for inhibition at 100 µM: Rattus norvegicus, 120 h, read-out: angiogenesis inhibition activity. The source says: The efficacy of selected thalidomide analogs of the present invention was studied by five-day treatment of rat aortic rings (utilizing Sprague-Dawley rats available from Charles River Labs) with varied doses of the analogs. A DMSO control was utilized (FIG. 1). The results, determined using image analysis comparing control rings versus the treated rings (using NIM Image software), of the studies are as follows: […]

A short description of another data set: Toxicology screen. Particulars: i.p., single dose.
A further data set has as its system human saphenous veins. Nature of the data set: Anti-angiogenic activity utilizing human saphenous vein. In kind it is cell-based. Particulars: 336 h, daily dosages of 100 μM, 14 day treatment, image analysis, read-out: angiogenesis inhibition activity level. The procedure:
The efficacy of 2-(1-hydroxymethyl-2,6-dioxo-piperidin-3-yl)-1,3-dihydro-2H-isoindole-1,3-dione (CPS11) was studied by 14 day treatment of human saphenous veins (obtained through an IRB-approved protocol, Surgery Brand NCI) with 100 μM doses of the analog. A CAI, carboxyamido-triazole, 12 μg/ml control was utilized.

Regarding `CCC1(N2C(=O)c3ccccc3C2=O)C(=O)NC(=O)N(C2CCCCC2)C1=O` (centres unmarked) [CPS44, 1-cyclohexyl-5-ethyl-5-phthalimidobarbituric acid], the entries for the “inhibition (cytostatic activity), growth curves treated vs control wells” value with HUVEC (10 μM) and with HUVEC (100 μM) were “no such activity” and “about 50%”, respectively. Also, in the data set with rat aortic rings, the angiogenesis inhibition activity result is reported as “No inhibition of angiogenesis”.

As to `O=C1c2c(F)c(F)c(F)c(F)c2C(=O)N1c1ccc(F)cc1F` [CPS49, 2-(2,4-difluoro-phenyl)-4,5,6,7-tetrafluoro-1H-isoindole-1,3(2H)-dione], the “inhibition (cytostatic activity), growth curves treated vs control wells” value in the data set on HUVEC (10 μM) is “no such activity”; in the data set with HUVEC (100 μM), “about 90%”. Further, the angiogenesis inhibition activity entry with rat aortic rings was “extensive angiogenesis inhibition activity”. Moreover, the “time to death after treatment” value in “Toxicology screen” (200 mg/kg) is not above 18 h. Also, the toxicology screen outcome in the data set “Toxicology screen” (200 mg/kg) is “lethal dose”.

By inhibition is commonly meant the relative decrease from the control value, in per cent. `O=C1CCC(N2C(=O)c3ccccc3C2=O)C(=O)N1CO` (centres unmarked) [CPS11, 2-(1-hydroxymethyl-2,6-dioxo-piperidin-3-yl)-1,3-dihydro-2H-isoindole-1,3-dione]: the entries for the “inhibition, growth curves treated vs control wells” value with HUVEC (10 μM) and in the data set with HUVEC (100 μM) were “about 60%” and more than 90%, respectively. For the same compound, the inhibition at 100 µM in the data set on rat aortic rings and with human saphenous veins was 90% in each case. Also, the toxicology screen outcome in “Toxicology screen” (10 mg/kg) and in “Toxicology screen” (100 mg/kg) was “safe” each time. Moreover, in the data set “Toxicology screen” (10 and 100 mg/kg), the sedation noted entry was “Some amount of sedation”.

`O=C1c2c(F)c(F)c(F)c(F)c2C(=O)N1c1c[nH]c(=O)[nH]c1=O` [CPS48, 5-(tetrafluorophthalimido)pyrimidine-2,4(1H,3H)-dione]: the “inhibition (cytostatic activity), growth curves treated vs control wells” value in the data set with HUVEC (10 μM) and with HUVEC (100 μM) was “about 85%” in each case. In addition, in the data set on rat aortic rings, the inhibition at 100 µM is 90%.

Consider `Cc1ccc(C)c2c1C(=O)N(c1ccc(F)cc1F)C2=O` [CPS42, 2-(2,4-difluorophenyl)-4,7-dimethyl-1H-isoindole-1,3(2H)-dione], for which the “inhibition (cytostatic activity), growth curves treated vs control wells” value with HUVEC (10 μM) was “no such activity”. The “inhibition (cytostatic activity), growth curves treated vs control wells” value in the data set with HUVEC (100 μM) is on record as “about 44%”. Also, in “Toxicology screen” (200 mg/kg), the sedation noted entry was “Slight sedation”, the “time after injection at which sedation was noted” value was not above 15 min and the toxicology screen outcome was “safe”.

Usually melting point stands for the temperature of the solid-liquid transition. In the case of `O=C1NC(=O)C(N2C(=O)c3ccccc3C2=O)CC1O` (centres unmarked) [CPS3, 2-(5-hydroxy-2,6-dioxo-piperidin-3-yl)-1H-isoindole-1,3[2H]-dione], the melting point lay within 195 to 230 °C. For the same compound, in the data set on HUVEC (10 μM), the “inhibition (cytostatic activity), growth curves treated vs control wells” value is recorded as “No cytostatic activity”. Also, the “inhibition (cytostatic activity), growth curves treated vs control wells” value in the data set with HUVEC (100 μM) is listed as “No cytostatic activity”. The inhibition at 100 µM with rat aortic rings is approximately 50%.

For the compound `CCC1(N2C(=O)c3c(F)c(F)c(F)c(F)c3C2=O)C(=O)NC(=O)N(c2ccccc2)C1=O` (centres unmarked) [CPS45, 5-ethyl-1-phenyl-5-(tetrafluorophthalimido)barbituric acid], in the data set on HUVEC (10 μM), the “inhibition (cytostatic activity), growth curves treated vs control wells” value is listed as more than 90%. For the same compound, in the data set on HUVEC (100 μM), the “inhibition (cytostatic activity), growth curves treated vs control wells” value is more than 90%. Also, the inhibition at 100 µM in the data set on rat aortic rings came to 90%. Besides, in the data set “Toxicology screen” (200 mg/kg), the “time to death after treatment” value was not above 2.5 h and the toxicology screen outcome is given as “lethal dose”.
